pIC50: −log10 of the molar value.
Tested on: ASPS-1 complex tumor spheroids, viability
Test: Anticancer human tumor ASPS-1 cell line growth inhibition;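 further: spheroids exposed to agents for 7 days after 3 days of growth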;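 on viability, T/C: 100% = DMSO vehicle treated spheroids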
Conditions: for pIC50: curve of first compound; for viability, T/C: stronger effect = lower value
Procedure, shortened: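 Complex tumor spheroids combined malignant cells with endothelial cells and mesenchymal stem cells. DNA-damaging drugs and DNA repair inhibitors were tested alone and in combination, at half-log dilutions down from clinical Cmax (top 10 microM if Cmax unknown), 0.25% DMSO final.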

[1] = second compound 30 pM, first compound 0.00949 µM
[2] = second compound 30 pM, first compound 0.03 µM
[3] = second compound 30 pM, first compound 0.0949 µM
[4] = second compound 30 pM, first compound 0.3 µM
[5] = second compound 30 pM, first compound 0.949 µM
[6] = second compound 30 pM, first compound 3 µM
[7] = second compound 94.9 pM, first compound 0.00949 µM
[8] = second compound 94.9 pM, first compound 0.03 µM
[9] = second compound 94.9 pM, first compound 0.0949 µM
[10] = second compound 94.9 pM, first compound 0.3 µM
[11] = second compound 94.9 pM, first compound 0.949 µM
[12] = second compound 94.9 pM, first compound 3 µM
[13] = second compound 0.0003 µM, first compound 0.00949 µM
[14] = second compound 0.0003 µM, first compound 0.03 µM
[15] = second compound 0.0003 µM, first compound 0.0949 µM
[16] = second compound 0.0003 µM, first compound 0.3 µM
[17] = second compound 0.0003 µM, first compound 0.949 µM
[18] = second compound 0.0003 µM, first compound 3 µM
[19] = second compound 0.000949 µM, first compound 0.00949 µM
[20] = second compound 0.000949 µM, first compound 0.03 µM
[21] = second compound 0.000949 µM, first compound 0.0949 µM
[22] = second compound 0.000949 µM, first compound 0.3 µM
[23] = second compound 0.000949 µM, first compound 0.949 µM
[24] = second compound 0.000949 µM, first compound 3 µM
[25] = second compound 0.003 µM, first compound 0.00949 µM
[26] = second compound 0.003 µM, first compound 0.03 µM
[27] = second compound 0.003 µM, first compound 0.0949 µM
[28] = second compound 0.003 µM, first compound 0.3 µM
[29] = second compound 0.003 µM, first compound 0.949 µM
[30] = second compound 0.003 µM, first compound 3 µM

SMILES	pIC50 (second compound 30 pM)	pIC50 (second compound 94.9 pM)	pIC50 (second compound 0.0003 µM)	pIC50 (second compound 0.000949 µM)	pIC50 (second compound 0.003 µM)	viability, T/C [1]	viability, T/C [2]	viability, T/C [3]	viability, T/C [4]	viability, T/C [5]	viability, T/C [6]	viability, T/C [7]	viability, T/C [8]	viability, T/C [9]	viability, T/C [10]	viability, T/C [11]	viability, T/C [12]	viability, T/C [13]	viability, T/C [14]	viability, T/C [15]	further results
CNCc1ccc(-c2cc(-c3nc(-c4ccc(S(=O)(=O)C(C)C)cc4)cnc3N)on2)cc1 + COc1cc2c(cc1O)CCNC21CSC2c3c(OC(C)=O)c(C)c4c(c3C(COC1=O)N1C(O)C3Cc5cc(C)c(OC)c(O)c5C(C21)N3C)OCO4	6.04	6.07	6.26	6.73	> 8.02	109%	104%	105%	74.3%	51.9%	14.9%	106%	108%	108%	80.8%	48.3%	9.57%	106%	111%	102%	viability, T/C [16]: 66.4%; viability, T/C [17]: 34.7%; viability, T/C [18]: 5.83%; viability, T/C [19]: 85.8%; viability, T/C [20]: 83%; viability, T/C [21]: 64.9%; viability, T/C [22]: 36.1%; viability, T/C [23]: 20.2%; viability, T/C [24]: 1.09%; viability, T/C [25]: 16.9%; viability, T/C [26]: 24.3%; viability, T/C [27]: 15.2%; viability, T/C [28]: 2.85%; viability, T/C [29]: 0.66%; viability, T/C [30]: 0.65%
Cc1sc2c(c1C)C(c1ccc(Cl)cc1)=NC(CC(=O)Nc1ccc(O)cc1)c1nnc(C)n1-2 (stereo not given) + COc1cc2c(cc1O)CCNC21CSC2c3c(OC(C)=O)c(C)c4c(c3C(COC1=O)N1C(O)C3Cc5cc(C)c(OC)c(O)c5C(C21)N3C)OCO4	< 5.52	< 5.52	< 5.52	6.11	> 8.02	109%	112%	113%	103%	94%	83%	106%	107%	109%	103%	93.4%	70.2%	102%	110%	103%	viability, T/C [16]: 97.1%; viability, T/C [17]: 85.2%; viability, T/C [18]: 72.4%; viability, T/C [19]: 81.6%; viability, T/C [20]: 94.7%; viability, T/C [21]: 88.7%; viability, T/C [22]: 76.9%; viability, T/C [23]: 44.3%; viability, T/C [24]: 26.3%; viability, T/C [25]: 24.1%; viability, T/C [26]: 24.6%; viability, T/C [27]: 29.2%; viability, T/C [28]: 20.9%; viability, T/C [29]: 9.4%; viability, T/C [30]: 1.27%
